Data set [1] in a line: Inhibition of PKA.
Data set [2] in a line: Inhibition of SGK.
Data set [3] has as its target T1, RAC-alpha serine/threonine-protein kinase (Homo sapiens, UniProt P31749). Put plainly: Inhibition of Akt1.
For data set [4], the target named is T1, RAC-alpha serine/threonine-protein kinase. Put plainly: Inhibition of Akt1 by cell-based assay.
Data set [5] is described as follows: Inhibition of PKC.
Data set [6] addresses T2, RAC-beta serine/threonine-protein kinase (Homo sapiens, UniProt P31751). The data set can be described thus: Inhibition of Akt2 by cell-based assay.
The target in data set [7] is T2, RAC-beta serine/threonine-protein kinase. Put plainly: Inhibition of Akt2.
The target of data set [8] is RAC-gamma serine/threonine-protein kinase (Homo sapiens, UniProt Q9Y243). Put plainly: Inhibition of Akt3.
The nature of data set [9]: Distribution coefficient, log D of the compound. As to conditions: octanol/water. The data set is classed as physicochemical.
In data set [10] the test system is Mus musculus. Put plainly: Inhibition of Akt2 in mouse lung at 50 mg/kg, ip administered three times a day after 10 hrs by IP kinase assay. Set-up: scale not given: the % may be the effect or the level left. As to conditions: route intraperitoneal. The data set is classed as functional.
Data set [11] in a line: Half life in rat. In kind it is ADME, organism-based. As to conditions: in vivo.
Data set [12] is described as follows: Clearance in rat. In kind it is ADME, organism-based. As to conditions: in vivo.
Data set [13] addresses Voltage-gated inwardly rectifying potassium channel KCNH2 (Homo sapiens, UniProt Q12809). The data set can be described thus: Inhibition of human ERG.
The test system of data set [14] is Mus musculus. The data set can be described thus: Inhibition of Akt2 in mouse lung at 50 mg/kg, ip administered three times a day after 16 hrs by IP kinase assay. The data set is classed as functional. Set-up: scale not given: the % may be the effect or the level left. The conditions noted are these: route intraperitoneal.
A short description of data set [15]: Partition coefficient, log P of the compound. The data set is classed as physicochemical. As to conditions: octanol/water.
The test system of data set [16] is Mus musculus. Put plainly: Inhibition of AKT1 in A2780 cells xenografted mouse tumor tissue at 50 mg/kg, twice daily after 2 hrs by IP kinase assay. The data set is classed as functional. As to conditions: route intraperitoneal.
Data set [17] has as its system Mus musculus. The data set can be described thus: Inhibition of Akt1 in mouse lung at 50 mg/kg, ip administered three times a day after 16 hrs by IP kinase assay. The data set is classed as functional. The arrangement: scale not given: the % may be the effect or the level left. The conditions noted are these: route intraperitoneal.
The subject of data set [18] is Mus musculus. The data set can be described thus: Inhibition of AKT2 in A2780 cells xenografted mouse lung tissue at 50 mg/kg, twice daily after 2 hrs by IP kinase assay. The data set is classed as functional. As to conditions: route intraperitoneal.
Data set [19] relates to Mus musculus. The data set can be described thus: Inhibition of Akt2 in mouse lung at 50 mg/kg, ip administered three times a day after 24 hrs by IP kinase assay. The data set is classed as functional. Set-up: scale not given: the % may be the effect or the level left. The conditions noted are these: route intraperitoneal.
Data set [20] has as its system Mus musculus. The data set can be described thus: Inhibition of AKT2 in A2780 cells xenografted mouse tumor tissue at 50 mg/kg, twice daily after 2 hrs by IP kinase assay. In kind it is functional. The conditions noted are these: route intraperitoneal.
Data set [21] in a line: Drug concentration in mouse blood at 50 mg/kg, ip administered three times a day after 16 hrs. In kind it is ADME, organism-based. The arrangement: dose 50 mg/kg, route intraperitoneal. As to conditions: whole blood, read-out: Drug uptake.
Data set [22] has as its system Mus musculus. Put plainly: Inhibition of Akt1 in mouse lung at 50 mg/kg, ip administered three times a day after 24 hrs by IP kinase assay. The data set is classed as functional. Set-up: scale not given: the % may be the effect or the level left. As to conditions: route intraperitoneal.
The subject of data set [23] is Mus musculus. The data set can be described thus: Inhibition of AKT1 in A2780 cells xenografted mouse lung tissue at 50 mg/kg, twice daily after 2 hrs by IP kinase assay. In kind it is functional. The conditions noted are these: route intraperitoneal.
Data set [24] can be described thus: Drug concentration in mouse blood at 50 mg/kg, ip administered three times a day after 24 hrs. Set-up: dose 50 mg/kg, route intraperitoneal. In kind it is ADME, organism-based. As to conditions: whole blood, read-out: Drug uptake.
A short description of data set [25]: Drug concentration in mouse blood at 50 mg/kg, ip administered three times a day after 10 hrs. In kind it is ADME, organism-based. The arrangement: dose 50 mg/kg, route intraperitoneal. As to conditions: whole blood, read-out: Drug uptake.
The species named for data set [26] is Homo sapiens. Put plainly: Protein binding in human plasma. The conditions noted are these: read-out: PB (converted).
Data set [27] concerns Mus musculus. The data set can be described thus: Inhibition of Akt1 in mouse lung at 50 mg/kg, ip administered three times a day after 10 hrs by IP kinase assay. In kind it is functional. The arrangement: scale not given: the % may be the effect or the level left. As to conditions: route intraperitoneal.
The test system of data set [28] is A2780. The data set can be described thus: Antitumor activity in human A2780 cells xenografted mouse assessed as decrease in tumor weight at 50 mg/kg, sc administered three times a day twice a week for five cycles. The data set is classed as functional, organism-based. The arrangement: dose 50 mg/kg. For orientation: A xenograft is tissue or cells of one species grown in another, often human tumour cells in immunodeficient mice.

Active and inactive are the calls of the source. Bounds are passed on as bounds.

This is an account of results in ChEMBL document CHEMBL1143097, “Allosteric inhibitors of Akt1 and Akt2: a naphthyridinone with efficacy in an A2780 tumor xenograft model” (Bioorg Med Chem Lett, 2008).

T2 sequence (P31751 whole entry): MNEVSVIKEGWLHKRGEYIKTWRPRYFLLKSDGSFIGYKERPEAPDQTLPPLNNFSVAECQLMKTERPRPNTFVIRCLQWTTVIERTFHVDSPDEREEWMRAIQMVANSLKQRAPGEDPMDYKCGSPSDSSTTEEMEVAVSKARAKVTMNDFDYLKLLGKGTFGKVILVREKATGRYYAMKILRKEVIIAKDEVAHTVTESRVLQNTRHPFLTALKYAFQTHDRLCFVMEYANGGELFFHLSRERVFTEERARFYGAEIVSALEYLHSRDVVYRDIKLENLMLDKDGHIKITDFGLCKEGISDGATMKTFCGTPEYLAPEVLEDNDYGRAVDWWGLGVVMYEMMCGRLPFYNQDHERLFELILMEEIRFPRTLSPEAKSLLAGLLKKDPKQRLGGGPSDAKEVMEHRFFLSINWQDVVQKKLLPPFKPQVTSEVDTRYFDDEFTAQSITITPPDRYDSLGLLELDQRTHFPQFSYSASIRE
T1 sequence (P31749 whole entry): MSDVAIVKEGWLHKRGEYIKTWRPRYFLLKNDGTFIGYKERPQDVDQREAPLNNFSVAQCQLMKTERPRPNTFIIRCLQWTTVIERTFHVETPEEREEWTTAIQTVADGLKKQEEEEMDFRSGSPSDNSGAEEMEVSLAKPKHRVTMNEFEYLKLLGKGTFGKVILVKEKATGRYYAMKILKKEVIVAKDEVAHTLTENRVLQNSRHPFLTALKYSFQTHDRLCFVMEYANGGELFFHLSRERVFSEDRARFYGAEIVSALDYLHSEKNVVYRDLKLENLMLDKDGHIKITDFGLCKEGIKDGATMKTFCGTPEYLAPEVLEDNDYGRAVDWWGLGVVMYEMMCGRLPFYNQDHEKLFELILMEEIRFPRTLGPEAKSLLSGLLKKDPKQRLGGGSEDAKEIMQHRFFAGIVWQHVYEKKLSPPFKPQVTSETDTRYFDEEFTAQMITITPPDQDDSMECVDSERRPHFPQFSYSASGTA
Chain of RAC-gamma serine/threonine-protein kinase (Q9Y243 whole entry): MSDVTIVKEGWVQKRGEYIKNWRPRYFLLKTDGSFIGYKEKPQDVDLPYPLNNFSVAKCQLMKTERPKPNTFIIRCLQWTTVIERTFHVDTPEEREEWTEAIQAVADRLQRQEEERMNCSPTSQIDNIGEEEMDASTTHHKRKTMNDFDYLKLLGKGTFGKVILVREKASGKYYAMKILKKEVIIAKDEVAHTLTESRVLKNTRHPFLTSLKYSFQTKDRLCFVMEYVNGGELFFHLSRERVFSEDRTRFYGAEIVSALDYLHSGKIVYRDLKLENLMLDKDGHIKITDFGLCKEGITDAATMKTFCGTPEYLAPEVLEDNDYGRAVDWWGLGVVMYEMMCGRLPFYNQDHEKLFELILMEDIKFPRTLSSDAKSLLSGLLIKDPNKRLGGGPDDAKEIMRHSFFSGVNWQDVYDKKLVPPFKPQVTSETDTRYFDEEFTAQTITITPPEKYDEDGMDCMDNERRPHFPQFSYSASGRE
Chain of Voltage-gated inwardly rectifying potassium channel KCNH2 (Q12809 whole entry): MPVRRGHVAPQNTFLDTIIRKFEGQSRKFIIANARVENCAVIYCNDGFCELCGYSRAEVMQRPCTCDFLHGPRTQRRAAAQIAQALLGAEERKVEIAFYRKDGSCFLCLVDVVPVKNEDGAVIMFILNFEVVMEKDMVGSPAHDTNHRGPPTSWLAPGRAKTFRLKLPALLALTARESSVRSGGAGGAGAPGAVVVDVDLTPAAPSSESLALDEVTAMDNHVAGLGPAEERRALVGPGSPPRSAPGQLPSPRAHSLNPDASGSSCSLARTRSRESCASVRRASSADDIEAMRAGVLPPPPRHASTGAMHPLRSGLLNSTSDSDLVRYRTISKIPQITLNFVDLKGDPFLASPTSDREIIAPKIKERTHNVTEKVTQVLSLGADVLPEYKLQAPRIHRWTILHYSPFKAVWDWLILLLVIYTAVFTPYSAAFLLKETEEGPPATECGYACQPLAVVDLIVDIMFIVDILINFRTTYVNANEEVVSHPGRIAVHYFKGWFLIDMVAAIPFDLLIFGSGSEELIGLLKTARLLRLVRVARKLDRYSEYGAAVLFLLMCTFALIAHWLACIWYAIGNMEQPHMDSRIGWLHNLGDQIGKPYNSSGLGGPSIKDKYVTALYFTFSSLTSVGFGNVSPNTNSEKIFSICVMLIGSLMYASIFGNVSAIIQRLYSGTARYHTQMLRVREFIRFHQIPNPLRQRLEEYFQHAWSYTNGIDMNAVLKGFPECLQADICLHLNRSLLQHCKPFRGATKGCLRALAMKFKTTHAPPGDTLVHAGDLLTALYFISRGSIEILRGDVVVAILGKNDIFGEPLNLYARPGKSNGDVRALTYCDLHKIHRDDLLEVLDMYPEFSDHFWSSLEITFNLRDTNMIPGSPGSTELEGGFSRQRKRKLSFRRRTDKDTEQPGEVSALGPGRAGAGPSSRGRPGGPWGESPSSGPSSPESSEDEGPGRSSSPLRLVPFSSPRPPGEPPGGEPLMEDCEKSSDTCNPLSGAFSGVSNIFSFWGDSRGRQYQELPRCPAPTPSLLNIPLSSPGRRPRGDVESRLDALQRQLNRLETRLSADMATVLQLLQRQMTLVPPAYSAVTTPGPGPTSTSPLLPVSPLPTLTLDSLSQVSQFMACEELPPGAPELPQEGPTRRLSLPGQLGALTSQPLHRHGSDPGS

By IC50 is commonly meant the concentration that gives 50% inhibition. As for `c1ccc(-c2cc3cccnc3nc2-c2ccc(CN3CCC(c4cc(-c5ccncc5)[nH]n4)CC3)cc2)cc1`, the concentration for half-maximal inhibition (IC50) in data set [1] was greater than 50000 nM; in data set [2], greater than 50000 nM; in data set [3] it was 120 nM; in data set [4], 369 nM; in data set [5], greater than 50000 nM; in [6], 1450 nM. Inhibition in [7] was half-maximal at 260 nM (IC50).
For `c1ccc(-c2cc3cnccc3nc2-c2ccc(CN3CCC(c4n[nH]c(-c5ccccn5)n4)CC3)cc2)cc1`, the IC50 in data set [1] is greater than 50000 nM; in [2] it was greater than 50000 nM; in [3], 7.4 nM; in data set [4], 21 nM; in data set [5], greater than 50000 nM; in data set [6], 2680 nM. For the same compound, half-maximal inhibition in data set [7] (IC50) was put at 210 nM.
Usually logD stands for lipophilicity at a set pH, counting ionised and neutral species. On to `c1ccc(-c2nc3ccccc3nc2-c2ccc(CN3CCC(c4cc(-c5ccncc5)[nH]n4)CC3)cc2)cc1`, for which the concentration for half-maximal inhibition (IC50) in data set [8] was determined as 11300 nM; in [3] it was 75 nM; in data set [7] it was 1080 nM. In addition, the logD in data set [9] was 2.71.
For `c1ccc(-c2cc3ncccc3nc2-c2ccc(CN3CCC(c4n[nH]c(-c5ccccn5)n4)CC3)cc2)cc1`, the half-inhibitory concentration (IC50) in [1] is greater than 50000 nM; in [2], greater than 50000 nM; in [3], 5.6 nM; in [4], 30 nM; in [5], greater than 50000 nM; in data set [6], 1480 nM. This compound showed a half-maximal inhibitory concentration (IC50) in data set [7] of 70 nM.
As to `c1ccc(-c2cc3cccnc3nc2-c2ccc(CN3CCC(c4n[nH]c(-c5ccccn5)n4)CC3)cc2)cc1`, the 50% inhibitory concentration (IC50) in data set [1] was greater than 50000 nM; in data set [2], greater than 50000 nM; in data set [3], 45 nM; in data set [4] it was 83 nM; in data set [5], greater than 50000 nM; in data set [6], 1080 nM. The compound further had an IC50 in data set [7] of 220 nM.
For `c1ccc(-c2cc3cccnc3nc2-c2ccc(CN3CCC(c4cc(-c5ccccn5)[nH]n4)CC3)cc2)cc1`, the IC50 in [1] was greater than 50000 nM; in data set [2], greater than 50000 nM; in [3] it was 44 nM; in data set [4], 149 nM; in [5], greater than 50000 nM; in data set [6], 995 nM. Besides, the midpoint of inhibition in data set [7], the IC50, lay at 280 nM.
For the compound `O=c1ccc(-c2cc(C3CCN(Cc4ccc(-c5nc6ncccc6cc5-c5ccccc5)cc4)CC3)n[nH]2)c[nH]1`, the IC50 was greater than 50000 nM in data set [1]; greater than 50000 nM in [2]; 34 nM in [3]; 132 nM in [4]; greater than 50000 nM in data set [5]; 613 nM in data set [6]. Further, in data set [7], the half-maximal inhibitory concentration (IC50) stood at 83 nM.
For the compound `c1ccc(-c2cc3cccnc3nc2-c2ccc(CN3CCC(c4cc(-c5cccnc5)[nH]n4)CC3)cc2)cc1`, the IC50 in data set [1] is greater than 50000 nM; in data set [2], greater than 50000 nM; in data set [3], 250 nM; in data set [5] it was greater than 50000 nM; in [7], 900 nM.
Turning to `c1ccc(-c2cc(C3CCN(Cc4ccc(-c5nc6ncccc6cc5-c5ccccc5)cc4)CC3)n[nH]2)cc1`, the IC50 in data set [1] is greater than 50000 nM; in data set [2], greater than 50000 nM; in data set [3], 470 nM; in data set [5], greater than 50000 nM; in [7], 1600 nM.
For `CCN(CC)CCNC(=O)c1ccc2nc(-c3ccccc3)c(-c3ccc(CN4CCC(n5c(=O)[nH]c6ccccc65)CC4)cc3)nc2c1`, the figures for the half-inhibitory concentration (IC50) in data set [4] and in data set [6] were 527 nM and 730 nM, respectively.
What is called half-life is the time needed for the level to fall by half in the phase considered. What is called clearance is the rate of elimination divided by the concentration. The term logP denotes a log measure of how a compound divides between an organic and an aqueous phase. The inhibition in vivo is the share of the control response that was lost under treatment. For `O=C1N=CC=C2N=C(c3ccc(CN4CCC(c5n[nH]c(-c6ccccn6)n5)CC4)cc3)C(c3ccccc3)=CC12` (configuration not stated), the Activity in data set [10] worked out at 41%; in data set [14], 86%; in [17], 62%; in data set [19], 91%; in data set [22] it was 100%; in data set [27] it was 21%. For the same compound, the half-life in [11] is 3.8 h. The compound further came in with a clearance in data set [12] of 4.6 mL/min/kg. Besides, the half-inhibitory concentration (IC50) is 1900 nM in data set [8]; 5610 nM in [13]; greater than 50000 nM in data set [1]; greater than 50000 nM in data set [2]; 3.5 nM in data set [3]; 16 nM in [4]. For the same compound, the results for the half-inhibitory concentration (IC50) in [5], in [6] and in data set [7] were greater than 50000 nM, 266 nM and 42 nM, respectively. The same compound returned a lipophilicity (logP) in [15] of 3.51. In addition, the inhibition in vivo at 50 mg/kg in [16] stood at 95%; in data set [18], 75%; in data set [20], 54%; in data set [23], 80%. Moreover, in data set [21], the concentration at 16 h came to 2600 nM. The concentration at 24 h in data set [24] was found to be 700 nM. The concentration at 10 h in data set [25] came to 13000 nM. For the same compound, in [26], the fraction unbound is 0.027. Further, the result in data set [28] was Active.
For `c1ccc(-c2cc3ccncc3nc2-c2ccc(CN3CCC(c4n[nH]c(-c5ccccn5)n4)CC3)cc2)cc1`, the IC50 in [1] was greater than 50000 nM; in data set [2] it was greater than 50000 nM; in [3], 21 nM; in data set [4], 31 nM; in [5], greater than 50000 nM; in [6], 981 nM. This compound also had a half-maximal inhibitory concentration (IC50) in data set [7] of 160 nM.
